According to paper PMC4764201, “High Throughput Screen for Escherichia coli Twin Arginine Translocation (Tat) Inhibitors” (PLoS ONE, 2016):

Legend:
[1] = molecular target: T1, E. coli Tat machinery (IMVs containing overproduced TatABC) (Escherichia coli, UniProt P69423+P69425+P69428); experiment: In vitro Tat transport assay of pre-SufI into IMVs, ATP as energy source; type: biochemical; settings: hit compound 100 μM
Protocol: (§1) To directly test for inhibition of Tat transport, a gel-based in vitro Tat transport assay was performed using pre-SufI, an authentic Tat precursor protein [7]. In short, this assay consists of incubating a Tat substrate and a Δψ-generating energy source with inverted membrane vesicles (IMVs) containing overproduced TatABC, digesting remaining external protein with a protease, and then analyzing via SDS-PAGE. This assay was run twice using NADH and ATP (if warranted) as energy sources to generate the necessary Δψ. NADH generates a Δψ using respiratory proteins (i.e., the NADH dehydrogenase and cytochrome bo3 ubiquinol oxidase complexes) and ATP generates a Δψ by reversal of ATP synthase. A true Tat inhibitor would survive both assays. In contrast, a respiration inhibitor is expected to reduce Tat transport when only one of the two energy sources is used (except for an ionophore).
(§2) Fig 8 Effect of Hits from the Local HTS on In Vitro Tat Transport. (A) Tat transport assays of pre-SufI using NADH to generate a Δψ. […] Samples were treated with the protease proteinase K, run on SDS-PAGE, and analyzed by in-gel fluorescence imaging. Assays were run in duplicate. Band intensity corresponds to the amount of protein transported into the IMV lumen. The following 7 compounds survived this screen: 1^JS, 51^JS, 55^JS, 111^JS, 181^JS, 202^JS, and 140^JS (boxed in red). (B) Tat transport assays of pre-SufI using ATP to generate a Δψ. All 7 compounds surviving the screen in (A) were tested using a Tat transport assay performed identically to those in (A) except that ATP (1 mM) was used in place of NADH. […]
(§3) Isolation of inverted membrane vesicles (IMVs), Western blot analyses and purification of pre-SufI-IAC were performed as described previously. […] The presence of a Δψ was determined by measuring oxonol VI fluorescence in presence of Tat^+ IMVs (A280 = 0.5), as described previously, except that the translocation buffer lacked BSA. Steady-state fluorescence spectra and fluorescence intensities of whole cells producing mCherry proteins were determined with an SLM-8100 spectrofluorometer.

[2] = molecular target: T1, E. coli Tat machinery (IMVs containing overproduced TatABC); experiment: In vitro Tat transport assay of pre-SufI into IMVs, NADH as energy source; type: biochemical; settings: hit compound 100 μM
[3] = tested on: Pseudomonas aeruginosa Tat machinery; parameters: method as in PMID 23006747; settings: cited from earlier work
[4] = tested on: E. coli Tat machinery (IMVs containing overproduced TatABC); experiment: In vitro Tat transport assay of pre-SufI into IMVs, NADH as energy source; type: biochemical, Escherichia coli; settings: out of 22 independent assays by three different people
Protocol: as §1
Fig 8 Effect of Hits from the Local HTS on In Vitro Tat Transport. (A) Tat transport assays of pre-SufI using NADH to generate a Δψ. Inverted membrane vesicles (IMVs; A280 = 5.0), the fluorescent substrate pre-SufI-IAC^Atto565 (90 nM), and NADH (4 mM) were incubated at 37°C for 30 min with DMSO (control) or with hit compound (20 μM). Samples were treated with the protease proteinase K, run on SDS-PAGE, and analyzed by in-gel fluorescence imaging. Assays were run in duplicate. Band intensity corresponds to the amount of protein transported into the IMV lumen. The following 7 compounds survived this screen: 1^JS, 51^JS, 55^JS, 111^JS, 181^JS, 202^JS, and 140^JS (boxed in red). (B) Tat transport assays of pre-SufI using ATP to generate a Δψ. All 7 compounds surviving the screen in (A) were tested using a Tat transport assay performed identically to those in (A) except that ATP (1 mM) was used in place of NADH. Compound 55^JS was eliminated by this assay—the other 6 compounds survived (boxed in red). (C) Chemical structure of compound 55^JS, N-(4,7-Dioxo-4,7-dihydro-2,1,3-benzoxadiazol-5-yl)acetamide.
Isolation of inverted membrane vesicles (IMVs), Western blot analyses and purification of pre-SufI-IAC were performed as described previously. Western blots were performed using rabbit anti-mCherry antibodies (1:10,000 dilution) in the presence of 0.1% Triton X-100 and 0.1% Tween 20. The pre-SufI-IAC protein was labeled with Atto565 maleimide, and the resultant fluorescent protein, pre-SufI-IAC^Atto565, was used as a substrate for the in vitro Tat transport assays (A280 = 5.0), as described previously. The presence of a Δψ was determined by measuring oxonol VI fluorescence in presence of Tat^+ IMVs (A280 = 0.5), as described previously, except that the translocation buffer lacked BSA. Steady-state fluorescence spectra and fluorescence intensities of whole cells producing mCherry proteins were determined with an SLM-8100 spectrofluorometer.
Supplementary file pone.0149659.s003.tiff: S3 Fig IC50's for Hit Compound 181^JS. (A) The total cellular mCherry fluorescence (live cell assay; n = 1), (B) the in vitro NADH-dependent Tat transport efficiency of pre-SufI (n = 1), and (C) the maximum transmembrane electrical potential gradient (n = 1) were measured for a range of concentrations of compound 181^JS (S2E Fig). (D) SDS-PAGE gel showing in-gel fluorescence data used in (B). For (A), cells expressing spTorA-mCherry-SsrA were grown under Tat^++ conditions in a 384-well plate in the presence of 0, 0.08, 0.15, 0.3, 0.63, 1.25, 2.5, 5, 10, 20, or 40 μM compound 181^JS, as described for the HTS assay (see Methods). For (B) and (C), IMVs were incubated with the same concentrations of compound 181^JS prior to initiation of Tat transport and Δψ generation by the addition of NADH, as described previously. The red curves are best-fits using y = d + (100-d)/(1+(x/IC50)^b), where b is a slope factor and d is the high concentration asymptote. (TIFF) Click here for additional data file.

[5] = tested on: E. coli Tat machinery (IMVs containing overproduced TatABC); experiment: In vitro Tat transport assay of pre-SufI into IMVs, ATP as energy source; type: biochemical, Escherichia coli; settings: hit compound 100 μM
Protocol: as §1, §2, §3

[6] = tested on: E. coli Tat machinery (IMVs containing overproduced TatABC); experiment: In vitro Tat transport assay of pre-SufI into IMVs, NADH as energy source; type: biochemical, Escherichia coli; settings: hit compound 100 μM

T1 sequence (P69423 2-258): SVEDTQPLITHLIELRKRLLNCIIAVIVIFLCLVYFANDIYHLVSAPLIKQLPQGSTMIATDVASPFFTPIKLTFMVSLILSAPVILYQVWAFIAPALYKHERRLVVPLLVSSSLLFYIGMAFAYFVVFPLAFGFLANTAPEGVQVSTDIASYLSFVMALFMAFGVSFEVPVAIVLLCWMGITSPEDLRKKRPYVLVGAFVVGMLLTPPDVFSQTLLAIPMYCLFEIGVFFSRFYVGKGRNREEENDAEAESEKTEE
T1 sequence (P69425 whole entry): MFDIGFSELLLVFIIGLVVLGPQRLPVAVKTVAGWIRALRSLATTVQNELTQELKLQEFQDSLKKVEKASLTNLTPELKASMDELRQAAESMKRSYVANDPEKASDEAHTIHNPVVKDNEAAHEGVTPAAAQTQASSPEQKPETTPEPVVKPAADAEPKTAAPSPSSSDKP
T1 sequence (P69428 whole entry): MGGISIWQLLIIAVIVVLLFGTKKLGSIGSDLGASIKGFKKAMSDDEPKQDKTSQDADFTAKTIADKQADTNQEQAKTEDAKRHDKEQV

Q: What does the source list for `N#CC1c2ccccc2-n2nncc2CN1Cc1cc(Cl)cc(Cl)c1` (stereo not shown) [21^NIH, 5-[(3,5-dichlorophenyl)methyl]-4,6-dihydrotriazolo[1,5-a][1, 4]benzodiazepine-6-carbonitrile]?
A: outcome of ATP-dependent in vitro Tat transport screen (survival = visible inhibition of Tat transport) [1]: survived; outcome of NADH-dependent in vitro Tat transport screen (survival = visible inhibition of Tat transport) [2]: survived

Q: With `Cc1ccc(S(=O)(=O)/C=C/C#N)cc1` [Bay 11–7082] as the compound, how does the “activity on the Pseudomonas aeruginosa Tat machinery” value [3] read?
A: Its value is “identified as inhibitors”.

Q: Which results are given for `Oc1cc(Cl)ccc1Oc1ccc(Cl)cc1Cl` [Compound 18^NIH, 5-Chloro-2-(2,4-dichlorophenoxy)phenol]?
A: number of assays in which Tat transport was inhibited [4]: 12 times; outcome of ATP-dependent in vitro Tat transport screen (survival = visible inhibition of Tat transport) [5]: survived; outcome of NADH-dependent in vitro Tat transport screen (survival = visible inhibition of Tat transport) [6]: survived

Q: For `O=C1C=CC(=O)N1c1ccccc1` [N-phenylmaleimide], which “activity on the Pseudomonas aeruginosa Tat machinery” value [3] is on record?
A: The value was “identified as inhibitors”.
